In US20080003254A1, “SYSTEMS AND METHODS FOR DELIVERING A RAPAMYCIN ANALOG THAT DO NOT INHIBIT HUMAN CORONARY ARTERY ENDOTHELIAL CELL MIGRATION” (ABBOTT LABORATORIES, priority 2006, published 2008):

How the values were obtained:
[1] = test system: human coronary artery endothelial cells (hCaEC); assay: hCaEC migration in modified Boyden chambers; format: cell-based; details: for effect on full growth media induced hCaEC migration: 24 hours drug pretreatment in hCaEC full growth media, drug present during migration, FIG. 2; for effect on FBS-induced hCaEC migration: 24 hours drug pretreatment in growth media, migration in response to 5% FBS without additional growth factors, FIG. 3; for effect on hCaEC migration: FIG. 1A
Procedure: (§1) The cancer chemotherapeutic, paclitaxel is hypothesized to directly interfere with microtubule homeostasis leading to the inhibition of EC migration and proliferation, which can lead to increased thrombosis. Reduced p70S6K activation alone will not result in anti-migratory activity. To examine the comparative effects of sirolimus, zotarolimus, dexamethasone, and paclitaxel on human coronary artery smooth muscle and endothelial cell migration, studies were conducted using modified Boyden chambers. As such, EC migration in response to HFGF, HEGF, VEGF, R^3-IGF-1 and FBS was determined using a modified Boyden chamber. Migration was induced using a variety of chemotactic stimuli including fetal bovine serum (FBS) in the presence and absence of growth factors as well as […] homodimer B (PDGF-BB). Anti-migratory activity was assessed after acute drug treatment and after pretreatment (24 hours) in basal or growth conditions.
(§2) Primary human coronary artery smooth muscle (hCaSMC) and endothelial cells (hCaEC) obtained from Cambrex (Walkersville, Md.) were routinely maintained in media recommended by the manufacturer. The hCaSMC were grown in a smooth muscle growth medium (“minimal media”, SmnBM, Cambrex) supplemented with the appropriate SingleQuot® to yield the complete medium containing 5% FBS, 0.1% hEGF, 0.2% hFGF-B, and 0.1% insulin (hCaSMC growth media). The hCaEC were maintained in the corresponding complete medium consisting of an endothelial cell growth medium (“minimal media”, EBM-2, Cambrex) supplemented with the appropriate SingleQuot® to yield the complete medium containing 5% FBS, 0.1% HEGF-B, 0.4% FGF, 0.1% R3-IGF, 0.04% hydrocortisone, 0.1% VEGF, and 0.1% ascorbic acid (hCaEC growth media). Cells were routinely propagated in the appropriate medium in humidified incubators maintained at 37° C. in an atmosphere containing 5% CO2. When necessary, each cell type was passed at 75% confluence.
(§3) Cells were maintained and used prior to 7 population doublings in all experiments. To expand cells prior to assay, frozen hCaSMC or hCaEC cells were thawed and cultured in T-162 flasks in smooth muscle growth medium (SmGM) or endothelial cell growth medium-2 (EGM-2), respectively, with the appropriate supplements. The cell medium was changed the next day and then every other day until cells reached 70-90% confluency. Growth medium was removed and cells were rinsed twice with PBS (without Ca^2+ and Mg^2+). To detach cells, sufficient trypsin/EDTA (3 ml) was added to cover the cell monolayer and the flask incubated at room temperature. After cells detached, trypsin was neutralized by addition of 6 ml complete medium. Cells were counted, transferred to a 50 ml tube and centrifuged. The cell pellet was re-suspended in growth medium to the appropriate cell density for experiments.
(§4) Cells (hCaEC or hCaSMC) were synchronized for 24 hours in basal media prior to all migration experiments. In acute studies, cells were collected, counted, and 200,000 hCaEC or 160,000 hCaSMC placed in the upper chambers of modified boyden chambers in 24 well plates (BD Biosciences). Plates contained microporous Fluoroblok membranes of 3.0 and 8.0 um for hCaEC and hCaSMC, respectively (Beckton Dickensen Biosciences). Chambers used in hCaEC migration experiments were coated with fibronectin (BD BioCoat). In pretreatment experiments, cells were synchronized in the presence of drug or treated for 24 hours in growth media after synchronization but prior to cell counting and migration. All cells were resuspended in basal media containing drugs or solvent (control) prior to migration. Cells were allowed to migrate in response to chemotatic agents for 22-24 hours. After migration, cells were stained with calcein-AM for 90 minutes and fluorescence determined using a plate reader capable of measuring fluorescence emitted by the bottom of the microporous filter. […]

[2] = test system: p70S6K (T389) phosphorylation; assay: Western blot of p70S6K (T389) phosphorylation in hCaSMC; format: cell-based, human; details: 300 nM drug for 36 hours after 24 hours synchronization; FIG. 7
Procedure: To determine if inhibition of p70S6K was involved in serum-induced migration Western blot experiments were performed on hCaEC and hCaSMC treated using an experimental paradigm similar to those of the migration experiments. Cells were synchronized for 24 hours in basal media followed by drug treatment in growth media for 36 hours. The effects of drug treatment on p70S6K T389 phosphorylation in hCaEC are illustrated in FIG. 6A-6B.
The hCaSMC were synchronized for 24 hours in basal media and incubated in growth media with or without drugs (300 nM) for 36 hours […]. Membranes were probed with a rabbit anti-phospho-p70S6K (T389) monoclonal antibody (Cell Signaling). […] Furthermore, the anti-migratory activity of the mTOR antagonists is not likely to contribute to their anti-restenotic activity. Conversely, paclitaxel is a potent anti-migratory agent and this effect is likely to contribute to it's anti-restenotic activity.

[3] = test system: human coronary artery smooth muscle cells (hCaSMC); assay: hCaSMC migration in modified Boyden chambers; format: cell-based; details: for effect on FBS-induced hCaSMC migration: 24 hours drug pretreatment in growth media, migration in response to FBS alone, FIG. 4; for effect on PDGF-BB stimulated hCaSMC migration: 24 hours pretreatment, PDGF-BB (25 ng/ml), FIG. 5
Procedure: as §1, §2, §3, §4

[4] = test system: p70S6K (T389) phosphorylation; assay: Western blot of p70S6K (T389) phosphorylation in hCaEC; format: cell-based, human; details: for effect on p70S6K T389 phosphorylation in hCaEC: 300 nM drug in growth media for 36 hours after 24 hours synchronization, FIG. 6A
Procedure: Human Coronary Endothelial Cells (hCaEC, Cambrex) were seeded on 100 mm plastic dishes (1-3×10^5 cells per dish) and incubated at 37° C. with 5% CO2 in complete growth media containing hFGF, HEGF, VEGF, R^3-IGF-1 and 5% FBS (GM). Cells were allowed to grow until dishes were 30-40% confluent. Cells were synchronized by incubation in basal media without supplements (BM) for 24 h. After synchronization the BM was replaced with GM containing test compounds, DMSO and BSA (Experimental dish: GM containing 300 nM test compounds, 0.1% BSA; Positive control: GM containing 0.1% BSA and 0.1% DMSO; Negative control: BM containing 0.1 or 0.5% FBS, 0.1% BSA and 0.1% DMSO).
Cells were incubated for 24 or 36 hours at 37° C. with 5% CO2. After which dishes were 50-70% confluent. Dishes were rinsed with warm PBS to remove excess FBS and than placed on ice. Whole cell lysates were prepared by adding 150-200 ul of RIPA lysis buffer at 4° C. (50 mM Tris HCl pH 8, 150 mM NaCl, 1% NP-40, 0.5% sodium deoxycholate, 0.1% SDS, 2 mM PMSF, 1 mM sodium orthovanadate, and protease inhibitor cocktail, Santa Cruz Biotechnology) to the culture dishes and collected by scrapping the plate surface with a cell scrapper. Lysates were transferred to 1 ml eppendorf tubes and incubated on ice with vortexing for 30 min. Samples were than centrifuged for 8 min at 10000 rpm. […]
The total protein concentration of the samples was determined by a modification of the method of Bradford (Quick Start Bradford Microplate Standard Assay, Bio-Rad) with bovine γ-globulin as a standard.
Total volume of the loaded sample was 45 ul containing 15 ul of 3× sample buffer (Laemmli Sample Buffer, Bio Rad), and sample (30 ul) containing 25 to 50 ug of protein. […] Denaturated samples were separated in 4-15% gradient or 12% Ready Tris-HCl gels (Bio-Rad) in running buffer 25 mM Tris, pH 8.3, 192 mM glycine, 0.1% SDS at 150-180 V for 60-90 minutes and transferred to Hybond-ECL membrane (Amersham Biosciences) in 25 mM Tris, pH 8.3, 192 mM glycine, 20% methanol at 100 V for 1 hour. […]

pRb phosphorylation = pRb phosphorylation (Western blot, hEC); format: cell-based, human
Text: Western blots have shown the levels of specific proteins using antibodies to those proteins in response to the rapamycin analog (e.g., zotarolimus). […] It has been shown that paclitaxel and zotarolimus inhibit the activation of p70S6K.
Additionally, it has been shown that paclitaxel, but not zotarolimus or dexamethasone, inhibits migration of human coronary artery endothelial cells in vitro. […] Paclitaxel blocks migration, however, all agents reduce p70S6K (T389) phosphorylation. […] Dexamethasone and zotarolimus are not predicted to inhibit re-endothelialization of vascular legions, and dexamethasone may promote re-endothelialization of vascular lesions. In contrast, paclitaxel inhibits re-endothelialization by blocking endothelial cell and/or smooth muscle cell migration.

[5] = acute drug exposure, no pretreatment, 5% FBS, 22 hour migration

| IC50 ([1]; Homo sapiens, Endothelial cell, acute drug exposure, no pretreatment, migration induced by 5% FBS, 22 hour migration, mean±SEM, n=3, FIG. 1C, read-out: IC50 of inhibition of hCaEC migration) | IC50 ([3]; Homo sapiens, acute drug exposure, no pretreatment, 5% FBS, 22 hour migration, read-out: IC50 of inhibition of hCaSMC migration) | Compound | effect on full growth media induced hCaEC migration [1] | effect on p70S6K T389 phosphorylation in hCaSMC [2] | effect on FBS-induced hCaEC migration [1] | Emax ([1]; Homo sapiens, Endothelial cell, acute drug exposure, no pretreatment, 5% FBS, 22 hour migration, mean±SEM, n=3, read-out: maximal efficacy of inhibition of hCaEC migration) | effect on FBS-induced hCaSMC migration [3] | effect on PDGF-BB stimulated hCaSMC migration [3] | Emax ([3]; Homo sapiens, acute drug exposure, no pretreatment, 5% FBS, 22 hour migration, read-out: maximal efficacy of inhibition of hCaSMC migration) | effect on p70S6K T389 phosphorylation in hCaEC [4] | effect on hCaEC migration [1, 5] | effect on pRb phosphorylation (pRb phosphorylation) | p70S6K T389 to actin ratio compared to growth controls (densitometry) ([4]; hCaEC, 300 nM drug, FIG. 6B) |
| --- | --- | --- | --- | --- | --- | --- | --- | --- | --- | --- | --- | --- | --- |
| – | – | CO[C@H]1C[C@@H]2CC[C@@H](C)[C@@](O)(O2)C(=O)C(=O)N2CCCC[C@H]2C(=O)O[C@H]([C@H](C)C[C@@H]2CC[C@@H](OCCO)[C@H](OC)C2)CC(=O)[C@H](C)/C=C(\C)[C@@H](O)[C@@H](OC)C(=O)[C@H](C)C[C@H](C)/C=C/C=C/C=C/1C [everolimus] | only paclitaxel inhibits | – | – | – | – | – | – | – | – | – | – |
| 28.2 ± 3.4 nM | 87.4 ± 18 nM | CC(=O)O[C@H]1C(=O)[C@@]2(C)[C@H]([C@H](OC(=O)c3ccccc3)[C@]3(O)C[C@H](OC(=O)[C@H](O)[C@@H](NC(=O)c4ccccc4)c4ccccc4)C(C)=C1C3(C)C)[C@]1(OC(C)=O)CO[C@@H]1C[C@@H]2O [paclitaxel] | inhibits | reduces p70S6K | significantly blocks | 96.8 ± 1.8% | significantly blocks | inhibited migration | 86.9 ± 2.9% | reduces T389 phosphorylation | – | – | – |
| – | – | CO[C@H]1C[C@@H]2CC[C@@H](C)[C@@](O)(O2)C(=O)C(=O)N2CCCC[C@H]2C(=O)O[C@H]([C@H](C)C[C@@H]2CC[C@@H](O)[C@H](OC)C2)CC(=O)[C@H](C)/C=C(\C)[C@@H](O)[C@@H](OC)C(=O)[C@H](C)C[C@H](C)/C=C/C=C/C=C/1C [sirolimus] | – | – | – | – | – | – | – | – | no effect | – | – |
| – | – | CO[C@H]1C[C@@H]2CC[C@@H](C)[C@@](O)(O2)C(=O)C(=O)N2CCCC[C@H]2C(=O)O[C@H]([C@H](C)C[C@@H]2CC[C@H](n3cnnn3)[C@H](OC)C2)CC(=O)[C@H](C)/C=C(\C)[C@@H](O)[C@@H](OC)C(=O)[C@H](C)C[C@H](C)/C=C/C=C/C=C/1C [zotarolimus] | only paclitaxel inhibits | completely inhibit | did not significantly block | – | did not significantly block | inhibited migration | – | completely block | no effect | reduces pRb phosphorylation | significant inhibition |
